From paper PMC5730604
Positions of bridges follow the written chain, without caps; N, C: chain ends. Non-standard residues stand in square brackets, D forms with d. Residues, ends and D or L forms follow the SMILES beside them. Chains are numbered I, II in the order given. *: point of attachment. PEG28 = NCCOCCOCCOCCOCCOCCOCCOCCOCCOCCOCCOCCOCCOCCOCCOCCOCCOCCOCCOCCOCCOCCOCCOCCOCCOCCOCCOCCOCCC(=O)O; Tyr(3-NO2) = N[C@@H](Cc1ccc(O)c([N+](=O)[O-])c1)C(=O)O; Hyp = O=C(O)[C@@H]1C[C@@H](O)CN1; For = O=C*

Assays:
[1] = in vivo; conditions: mouse, serum, sc
Experimental: (§7) according to standard procedures. From 20 ml antiserum, 1.5 mg purified antibody were
(§8) isolated and stored in aliquots at -20 °C in PBS + 0.01% thimerosal, 0.1% BSA diluted 1:1 with
(§9) glycerin (f inal concentration 227 µg/ml).
on a nitrocellulose membrane.
(§10) concentrations between 0.5 nM and 20 nM and s amples were also spotted in triplicates. After
(§11) drying, the membrane was soaked in TBST (150 mM NaCl, 50 mM Tris-HCl, pH 7.4, 0.05%
(§12) tween), blocked for 1 h at RT with 5% nonfat dry milk in TBST. The membrane was washed 3
(§13) 1:2000 in TBST, washed 3 times, incubated 1 h at RT with anti-rabbit-HRP (GE Healthcare)
(§14) diluted 1:5,000 in 5% nonf at dry milk in TBST. The membrane was f inally washed 3 times in
(§15) TBST and then incubated with ECL prime substrate (GE Healthcare). Chemiluminescent
(§16) signals were recorded in an LAS-4000 mini Image reader (Fuji). Spot intensities were
(§17) quantitated using Image J software. The calibration samples were used to prepare a linear
(§18) For the statistical analysis, mean (M) and standard deviation (SD) were calculated. T he
(§19) statistical analysis was p erf ormed with the GraphPad Prism Software, Version 5.0 (Graph Pad,
(§20) values of < 0.05 were considered signif icant.

[2] = tested on: guinea pig skin; assay: Local skin inflammation model, immune cell infiltration; assay type: in vivo; conditions: s.c. 100 nmol
Experimental: (§1) Animals: Eighth Edition. W ashington, DC: The National Academies Press, 2011) were […]
(§2) Committee (LANUV AZ. 87- 51.04.2010.A278). All experiments were performed in the Institute […]
(§3) GmbH (Sulzf eld, Germany) were used. Mice were housed in individual ventilated cages under […]
(§4) humidity and a 12h dark/light cycle.
(§5) Soest, Germany) was given ad libitum. Guinea pigs were housed in conventional open cages in the same way as describe for mice. Animals were allowed to acclimatize to their […]
(§6) additional immunohistochemical stainings with antibodies against granulocytes/monocytes

[3] = tested on: mouse skin; assay: as above; assay type: in vivo; conditions: immune-deficient Balb/c nu/nu mice, s.c., 200 nmol to 500 nmol, 24 h
Experimental: as §1, §2, §3, §4, §5, §6

[4] = tested on: A431, U-87 or HT-29 cells; assay: MTT assay; assay type: cell-based, Human; conditions: 100 nM to 10 µM, 24 h or 72 h, A431, U-87, HT-29 cells, triplicates
Experimental: were recorded at 278 K and referenced to the water signal. Spectra were assigned with CCPNMR1 using the sequential assignment protocol. Secondary Hα chemical shif ts were calculated as the difference between the measured Hα chemical shift and the respective random coil shif t.2 Random coil shifts were temperature corrected using the correction factors calculated by Kjaergaard et al.3 For the D-amino acids, the random coil shift of the respective L-amino acid was used, the random coil shif t of Tyr was used for Tyr(3-NO2) and 4.54 ppm was used f or Hyp Hα . Oxid ized Y9 (MW 5268.0) was prepared by dissolving Y9 in Na2HPO4 buff er (50 mM, pH 7.0). After HPLC purif ication, the oxidized Y9 (2.1 mg) was dissolved in 90% H2O/10% D2O (500 µL) at pH 2.9 and NMR spectra were acquired as described above. […]
Stained cells were analyzed by f low cytometr y. […]
At the end of the incubation period (24 h or 72 h at 37°C in 5% CO2) cells were 30- 80% conf luent. […] 04M HCl were added and absorbances were measured at 595 nm.
Absorbances were plotted against the agent’s concentrations. A high absorbance value […]
present in the well as compared to wells with low absorbance values.
Figure S13 : MTT assays showing no ef f ect of Y9 and sc- Y9 on the viability and prolif eration of diff erent tumor cell lines. […] To indicate background: the absorbance values of medium without cells were between 0.11 and […]

[5] = mice, local s.c. injection of 200 or 500 nmol, dot-blot, detection limit ~1 nM
Experimental: as §7, §8, §9
on a nitrocellulose membrane.
as §10, §11, §12, §13, §14, §15, §16, §17, §18, §19, §20

In the case of CC[C@H](C)[C@H](NC(=O)[C@H](CCSC)NC=O)C(=O)N[C@@H](Cc1ccccc1)C(=O)N[C@@H](CC(C)C)C(=O)NCC(=O)NCC(=O)N[C@@H](CCCCNC(=O)CCOCCOCCOCCOCCOCCOCCOCCOCCOCCOCCOCCOCCOCCOCCOCCOCCOCCOCCOCCOCCOCCOCCOCCOCCOCCOCCOCCOCCNC(=O)[C@H]1CSSC[C@@H](N)C(=O)N[C@H](CC(=O)O)C(=O)NCC(=O)N[C@@H](Cc2ccc(O)c([N+](=O)[O-])c2)C(=O)NCC(=O)N2C[C@H](O)C[C@H]2C(=O)N[C@@H](CC(N)=O)C(=O)N1)C(=O)N[C@@H](CCCCNC(=O)CCOCCOCCOCCOCCOCCOCCOCCOCCOCCOCCOCCOCCOCCOCCOCCOCCOCCOCCOCCOCCOCCOCCOCCOCCOCCOCCOCCOCCNC(=O)[C@H]1CSSC[C@@H](N)C(=O)N[C@H](CC(=O)O)C(=O)NCC(=O)N[C@@H](Cc2ccc(O)c([N+](=O)[O-])c2)C(=O)NCC(=O)N2C[C@H](O)C[C@H]2C(=O)N[C@@H](CC(N)=O)C(=O)N1)C(=O)O [Y9] (I: H-[dC][dD]G[Tyr(3-NO2)]G[Hyp]N[dC][PEG28] / II: H-[dC][dD]G[Tyr(3-NO2)]G[Hyp]N[dC][PEG28] / III: For-MIFLGGKK-OH; disulfide I:1-I:8, II:1-II:8; amide I:C-III:7, II:C-III:8), the half-life [1] is reported as roughly 2 h, the level at time molar at 1 h ([1]; 200 nmol) is reported as 350 nM and the level at time molar at 7 h ([1]; 200 nmol) is reported as 75 nM. The immune infiltrate ([2]; guinea pigs immune suppressed by four weekly injections of cyclophosphamide) was “less intense”, the “immune cell infiltration into the injection site” value ([2]; guinea pigs, 24 h) was “most pronounced” and the immune infiltrates [3] was “dose-dependent increases in immune infiltrates”. The “effect on viability and proliferation (MTT)” value [4] was “No effect” and the “detection of binder peptide in serum after 24 h” value [5] was “still detected”.
